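Protocol summary: plate cells (96-well), add compound at 5 concentrations, incubate 48 h, interpolate endpoints linearly. Here, GI50 denotes the concentration required for 50% inhibition of growth.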 Calls of active or inactive are those of the source. No stated cut-off is given here; in the data, active = GI50 up to about 1.1 µM and inactive = higher.
What was measured:
Experiment in all cases: DTP human tumour cell line panel, 48 h
[1] = test system: SR
[2] = test system: SK-OV-3
[3] = test system: DU-145
[4] = test system: SK-MEL-2
[5] = test system: CCRF-CEM
[6] = test system: HL-60
[7] = test system: MDA-MB-231
[8] = test system: NCI-H226
[9] = test system: HOP-62
[10] = test system: EKVX
[11] = test system: K562
[12] = test system: M14
[13] = test system: SF-539
[14] = test system: UACC-62
[15] = test system: RPMI-8226
[16] = test system: MCF7
[17] = test system: RXF 393
[18] = test system: OVCAR-5
[19] = test system: SW-620
[20] = test system: TK-10

Measured: GI50

CCN(CC)c1ccc2cc(-c3nnc(-c4ccccc4)o3)c(=O)oc2c1
inactive: [1] 6.64 µM | [2] 14.7 µM | [3] 66.2 µM | [4] 19.9 µM | [5] 3.89 µM | [6] 16.6 µM | [7] 22.9 µM | [8] 29.4 µM | [9] 17.6 µM | [10] 59.8 µM | [11] 1.4 µM | [12] 32.1 µM | [13] 13 µM | [14] 36.6 µM | [15] 12.1 µM | [16] 22.5 µM | [17] 14.5 µM | [18] 56.2 µM | [19] 30.5 µM | [20] 25.4 µM

COc1ccccc1C[C@@H]1OC2(C=CC(=O)C=C2)O[C@H]1Cc1ccccc1OC
inactive: [1] 1.78 µM | [2] 11.4 µM | [3] 18.4 µM | [4] 9.29 µM | [5] 3.33 µM | [6] 7.43 µM | [7] 13.8 µM | [8] 8.47 µM | [9] 7.4 µM | [10] 5.65 µM | [11] 11.5 µM | [12] 7.5 µM | [13] 8.75 µM | [14] 10.3 µM | [15] 1.71 µM | [16] 3.96 µM | [17] 1.16 µM | [18] 8.43 µM | [19] 1.79 µM | [20] 9.06 µM

COc1ccc(Oc2ccc3cc4c(cc3c2O)OCO4)c2cc(C)oc12
inactive: [1] 19.3 µM | [2] 52.7 µM | [3] 39.7 µM | [4] 18.5 µM | [5] 21.7 µM | [6] 25.1 µM | [7] 33.9 µM | [8] 25.4 µM | [9] 41.1 µM | [10] 28.7 µM | [11] 14.6 µM | [12] 26.6 µM | [13] 20.2 µM | [14] 35.6 µM | [15] 14.9 µM | [16] 34 µM | [17] 15.7 µM | [18] 59 µM | [19] 27.2 µM | [20] 25.4 µM

O=C(O)c1ccccc1CC1Cc2ccc3c(c2C1=O)CCC3 (stereo not given)
inactive: [1] > 100 µM | [2] > 100 µM | [3] > 100 µM | [4] > 100 µM | [5] > 100 µM | [6] > 100 µM | [7] > 100 µM | [8] > 100 µM | [9] > 100 µM | [10] > 100 µM | [11] > 100 µM | [12] 61.8 µM | [13] > 100 µM | [14] > 100 µM | [15] > 100 µM | [16] > 100 µM | [17] > 100 µM | [18] > 100 µM | [19] > 100 µM | [20] > 100 µM
